From US11396522B2, “Bis-acetal-based substrates for imaging exo-glycosidase activity” (ALECTOS THERAPEUTICS INC., priority 2017, dated 2022)

Tests used:
[1] = molecular target: T1, human Galactosylceramidase (GALC) (Homo sapiens, UniProt P54803); experiment: In vitro kinetic assay with human GALC; assay type: biochemical; conditions: 5 nM recombinant human GALC
T1 construct: purchased R&D systems
T1 sequence (P54803 43-685): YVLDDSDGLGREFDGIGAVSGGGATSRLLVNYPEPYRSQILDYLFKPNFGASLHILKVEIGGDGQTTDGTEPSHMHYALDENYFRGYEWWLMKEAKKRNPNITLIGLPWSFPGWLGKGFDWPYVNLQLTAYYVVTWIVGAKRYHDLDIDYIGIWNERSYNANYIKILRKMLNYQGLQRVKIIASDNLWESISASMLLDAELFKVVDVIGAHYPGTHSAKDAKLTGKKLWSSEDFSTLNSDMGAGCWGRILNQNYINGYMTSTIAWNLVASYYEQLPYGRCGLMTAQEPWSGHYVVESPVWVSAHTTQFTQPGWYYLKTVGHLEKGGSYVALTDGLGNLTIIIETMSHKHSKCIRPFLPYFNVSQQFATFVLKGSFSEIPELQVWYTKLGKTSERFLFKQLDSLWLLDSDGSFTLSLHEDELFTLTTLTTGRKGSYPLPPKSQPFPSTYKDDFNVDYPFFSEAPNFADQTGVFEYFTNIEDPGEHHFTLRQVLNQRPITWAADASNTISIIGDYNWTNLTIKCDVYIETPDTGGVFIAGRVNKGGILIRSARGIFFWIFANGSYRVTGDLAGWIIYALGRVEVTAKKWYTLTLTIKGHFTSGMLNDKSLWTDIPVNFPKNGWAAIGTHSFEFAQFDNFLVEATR
Protocol: (§1) For some experiments, fluorescence kinetic assays were performed using a Varian Cary Eclipse Spectrophotometer set for 335/493 nm excitation/emission wavelengths. Slits were set at 10 nm and the detector was set on Medium voltage. Enzymatic reactions with human OGA were carried out in PBS at 37° C. and were started by addition of hOGA (WT, Full-length, expressed in E. coli. as previously described) in a total volume of 160 μL (Starna sub-micro Fluorometer cuvette). For measurements of rates using different concentrations of substrates, a hOGA concentration of 100 nM was used. For hOGA titration, 25 μM of Glyco-BABS were added to various concentration of hOGA. […] EDANS standard curve was established using endpoint fluorescence measurements of serial dilutions of EDANS in the relevant buffer using the same instrument parameters. Inner-Filter effect measurements were carried out in cuvette by measuring fluorescence of several concentrations of EDANS in presence of various concentrations of GlcNAc-BABS. Kinetics with Glc-BABS and GBA enzymes (GBA1 and GBA3 purchased from R&D Systems), kinetics with GALC (R&D systems) and Gal-BABS, pH stability, quenching efficiency, some inner-filter effect experiments and lysates experiments were carried out using a Molecular Devices SpectraMax i3× plate reader. […]

GBA1 = molecular target: T2, GBA1 (Homo sapiens, UniProt P04062); experiment: In vitro kinetic assay with GBA1; assay type: biochemical; set-up: purchased R&D Systems; conditions: GBA enzymes at 50 nM
T2 sequence (P04062 40-536): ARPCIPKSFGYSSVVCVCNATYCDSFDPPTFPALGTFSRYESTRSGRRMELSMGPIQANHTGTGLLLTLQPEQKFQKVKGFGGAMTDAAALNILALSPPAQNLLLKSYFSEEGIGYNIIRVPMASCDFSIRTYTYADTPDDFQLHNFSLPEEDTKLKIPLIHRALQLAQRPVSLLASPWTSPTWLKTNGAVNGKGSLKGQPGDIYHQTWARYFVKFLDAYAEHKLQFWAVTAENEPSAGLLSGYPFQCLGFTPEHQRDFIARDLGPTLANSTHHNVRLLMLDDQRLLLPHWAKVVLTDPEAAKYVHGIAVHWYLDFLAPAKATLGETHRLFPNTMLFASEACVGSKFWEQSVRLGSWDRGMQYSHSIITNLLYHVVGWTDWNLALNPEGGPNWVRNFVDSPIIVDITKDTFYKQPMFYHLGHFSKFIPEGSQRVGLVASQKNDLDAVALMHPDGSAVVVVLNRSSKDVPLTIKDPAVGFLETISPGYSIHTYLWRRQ
Protocol: as §1

[2] = pH stability of Glyco-BABS; assay type: physicochemical; conditions: 5 μM, up to 72 h, pH 2 to 10
Description: One concern with the Glyco-BABS design was the known lability of acetals under acidic conditions that has been exploited in pH-sensitive prodrugs or linkers for drug delivery.^41,42 However, we recognized that carbohydrate anomeric acetals are chemically distinct from regular acetals. Due to stabilization by the endocyclic oxygen, we expected these bis-acetals would show stability across a range of physiological pH values. We therefore assessed the stability of the bis-acetal motif toward acid and base hydrolysis (FIG. 8). To do so, we tested the pH stability of 5 μM of GlcNAc-Br-BABS 1, GlcNAc-OH-BABS 2, Glc-OH-BABS 6 and Glc-H-BABS 7 at different pH over time. We prepared solutions at various pH by mixing 0.2 M KCl+0.1 M HCl with 0.2 M KCl+0.1 M KOH. Fluorescence of EDANS and Glyco-BABS solutions (5 μM, 45 μL) at different pH was measured at different time points in Nunc 384-well plates using a SpectraMax i3× plate reader. Data (triplicates) support the highly efficient quenching and the stability of these substrates over a wide range of pH.

Structure (SMILES) | turnover by human GALC [1] | turnover by GBA1 (GBA1) | pH stability (increase of fluorescence) [2]
CN(C)c1ccc(/N=N/c2ccc(C(=O)NCc3cn(CCOCCO[C@H](O[C@@H]4O[C@H](CO)[C@H](O)[C@H](O)[C@H]4O)[C@@](C)(O)C(=O)NCCNc4cccc5c(S(=O)(=O)O)cccc45)nn3)cc2)cc1 [Compound 5, 5-((2-((2R,3R)-3-(2-(2-(4-((4-((E)-(4-(dimethylamino)phenyl)diazenyl)benzamido)methyl)-1H-1,2,3-triazol-1-yl)ethoxy)ethoxy)-2-hydroxy-2-methyl-3-(((2S,3R,4S,5R,6R)-3,4,5-trihydroxy-6-(hydroxymethyl)tetrahydro-2H-pyran-2-yl)oxy)propanamido)ethyl)amino)naphthalene-1-sulfonic Acid] | turned over | – | –
CN(C)c1ccc(/N=N/c2ccc(C(=O)NCc3cn(CCOCCOC(CC(=O)NCCNc4cccc5c(S(=O)(=O)O)cccc45)O[C@@H]4O[C@H](CO)[C@@H](O)[C@H](O)[C@H]4O)nn3)cc2)cc1 (stereo partly drawn) [Compound 7, 5-((2-(3-(2-(2-(4-((4-((E)-(4-(dimethylamino)phenyl)diazenyl)benzamido)methyl)-1H-1,2,3-triazol-1-yl)ethoxy)ethoxy)-3-(((2S,3R,4S,5S,6R)-3,4,5-trihydroxy-6-(hydroxymethyl)tetrahydro-2H-pyran-2-yl)oxy)propanamido)ethyl)amino)naphthalene-1-sulfonic Acid] | – | turned over by GBA1 only | no significant increase of fluorescence
CN(C)c1ccc(/N=N/c2ccc(C(=O)NCc3cn(CCOCCO[C@H](O[C@@H]4O[C@H](CO)[C@H](O)[C@H](O)[C@H]4O)[C@@](C)(Br)C(=O)NCCNc4cccc5c(S(=O)(=O)O)cccc45)nn3)cc2)cc1 [Compound 4, 5-((2-((2R,3R)-2-bromo-3-(2-(2-(4-((4-((E)-(4-(dimethylamino)phenyl)diazenyl)benzamido)methyl)-1H-1,2,3-triazol-1-yl)ethoxy)ethoxy)-2-methyl-3-(((2S,3R,4S,5R,6R)-3,4,5-trihydroxy-6-(hydroxymethyl)tetrahydro-2H-pyran-2-yl)oxy)propanamido)ethyl)amino)naphthalene-1-sulfonic Acid] | turned over | – | –
